Source: PMC3444433, “The Drosophila nicotinic acetylcholine receptor subunits Dα5 and Dα7 form functional homomeric and heteromeric ion channels” (BMC Neuroscience, 2012)

Legend:
Experiment in all cases: two-electrode voltage clamp, Xenopus oocytes
Type in all cases: cell-based
Settings in all cases: read-out: EC 50(μM or nM)*
[1] = target: T1, Dα5 + Dα7 nAChR (Drosophila melanogaster, UniProt Q8T7V5+Q9VWI9)
T1 construct: gene nAChRalpha5; intact subunits co-injected as cRNA in Xenopus oocytes with C. elegans RIC-3; pairwise heteromer not proven (may be homomers); stoichiometry unknown
T1 sequence (Q8T7V5 1-807): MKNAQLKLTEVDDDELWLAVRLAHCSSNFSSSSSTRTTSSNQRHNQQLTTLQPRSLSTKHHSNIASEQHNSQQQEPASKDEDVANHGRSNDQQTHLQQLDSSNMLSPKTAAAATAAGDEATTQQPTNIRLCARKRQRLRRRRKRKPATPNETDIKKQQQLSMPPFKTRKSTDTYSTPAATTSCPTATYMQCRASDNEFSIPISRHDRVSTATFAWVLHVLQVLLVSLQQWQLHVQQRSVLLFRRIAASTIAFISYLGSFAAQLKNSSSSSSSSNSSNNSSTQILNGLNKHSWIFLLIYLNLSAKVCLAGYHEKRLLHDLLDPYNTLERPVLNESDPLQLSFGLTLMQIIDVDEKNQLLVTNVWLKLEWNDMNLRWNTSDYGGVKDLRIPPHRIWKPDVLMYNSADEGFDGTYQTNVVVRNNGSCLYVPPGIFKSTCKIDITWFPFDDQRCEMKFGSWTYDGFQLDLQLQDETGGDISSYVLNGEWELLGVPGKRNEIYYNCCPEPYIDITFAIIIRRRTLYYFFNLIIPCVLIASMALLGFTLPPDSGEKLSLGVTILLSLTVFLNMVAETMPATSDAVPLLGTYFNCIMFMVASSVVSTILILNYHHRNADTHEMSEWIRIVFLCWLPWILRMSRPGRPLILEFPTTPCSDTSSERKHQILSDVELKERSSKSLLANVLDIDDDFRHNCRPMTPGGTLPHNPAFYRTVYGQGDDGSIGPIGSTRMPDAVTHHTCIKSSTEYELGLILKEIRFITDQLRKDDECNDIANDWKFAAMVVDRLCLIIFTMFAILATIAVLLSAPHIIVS
T1 sequence (Q9VWI9 59-560): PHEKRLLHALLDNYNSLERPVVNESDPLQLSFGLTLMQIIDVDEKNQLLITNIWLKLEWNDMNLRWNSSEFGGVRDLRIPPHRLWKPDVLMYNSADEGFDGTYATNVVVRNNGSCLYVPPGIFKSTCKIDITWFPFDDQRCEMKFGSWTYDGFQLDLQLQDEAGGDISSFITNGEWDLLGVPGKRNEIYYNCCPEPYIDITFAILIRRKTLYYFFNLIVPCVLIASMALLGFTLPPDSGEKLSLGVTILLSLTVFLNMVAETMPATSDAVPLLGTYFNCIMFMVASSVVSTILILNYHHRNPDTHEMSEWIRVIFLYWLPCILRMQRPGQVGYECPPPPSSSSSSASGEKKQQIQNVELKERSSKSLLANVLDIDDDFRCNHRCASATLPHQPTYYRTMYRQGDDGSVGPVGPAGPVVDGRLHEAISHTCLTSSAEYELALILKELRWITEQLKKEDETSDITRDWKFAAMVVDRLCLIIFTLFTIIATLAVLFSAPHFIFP
Source text: two-electrode voltage clamp, Xenopus oocytes on Dα5 + Dα7 nAChR

[2] = target: T2, homomeric Dα7 nAChR (Drosophila melanogaster, UniProt Q9VWI9)
T2 construct: gene nAChRalpha7; intact subunit; pGEMHE cRNA in Xenopus oocytes with chaperone C. elegans RIC-3; homopentamer
T2 sequence (Q9VWI9 59-560): T1 sequence (Q9VWI9 59-560)
Source text: two-electrode voltage clamp, Xenopus oocytes on homomeric Dα7 nAChR

[3] = target: T3, homomeric Dα5 nAChR (Drosophila melanogaster, UniProt Q8T7V5)
T3 construct: gene nAChRalpha5; full-length, 807 residues, unusually large N-terminal domain; pGEMHE cRNA in Xenopus oocytes with chaperone C. elegans RIC-3; homopentamer
T3 sequence (Q8T7V5 1-807): T1 sequence (Q8T7V5 1-807)
Source text: two-electrode voltage clamp, Xenopus oocytes on homomeric Dα5 nAChR

[4] = target: T4, Dα5 + Dα6 nAChR (Drosophila melanogaster, UniProt Q8T7V5+Q9VL79)
T4 construct: gene nAChRalpha5; intact subunits co-injected as cRNA in Xenopus oocytes with C. elegans RIC-3; pairwise heteromer not proven (may be homomeric Dα5); stoichiometry unknown
T4 sequence (Q8T7V5 1-807): T1 sequence (Q8T7V5 1-807)
T4 sequence (Q9VL79 28-494): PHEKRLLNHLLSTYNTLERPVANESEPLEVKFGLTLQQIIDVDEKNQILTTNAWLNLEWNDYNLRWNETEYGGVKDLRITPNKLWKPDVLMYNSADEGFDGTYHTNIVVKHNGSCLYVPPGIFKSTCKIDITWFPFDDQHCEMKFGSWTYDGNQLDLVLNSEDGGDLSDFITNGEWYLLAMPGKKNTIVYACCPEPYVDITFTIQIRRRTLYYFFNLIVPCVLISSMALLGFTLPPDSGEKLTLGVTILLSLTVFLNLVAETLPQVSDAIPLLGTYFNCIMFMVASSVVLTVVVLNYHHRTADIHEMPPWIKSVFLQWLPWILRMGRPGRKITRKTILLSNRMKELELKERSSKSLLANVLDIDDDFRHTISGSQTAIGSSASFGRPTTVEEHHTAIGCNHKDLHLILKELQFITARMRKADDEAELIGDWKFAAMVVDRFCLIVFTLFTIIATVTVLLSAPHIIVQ
Source text: two-electrode voltage clamp, Xenopus oocytes on Dα5 + Dα6 nAChR

Structure (SMILES): CC(=O)OCC[N+](C)(C)C [acetylcholine]
- EC50 [1]: 1.6 ± 0.3 µM
- EC50 [2]: 6.7 ± 1.7 µM
- EC50 [3]: 8.8 ± 2.5 µM
- EC50 [4]: 8.6 ± 2.4 µM
